From patent US10233157B2, “SIK inhibitor for use in a method of treating an inflammatory and/or immune disorder” (Dana-Farber Cancer Institute, Inc., priority 2012, dated 2019) come the findings set out here.

Each structure is given as a SMILES string. Like-named read-outs stand apart in the source and are kept apart here.

One experiment relates to RAW264.7 macrophages. Nature of the experiment: IL-10 mRNA in RAW264.7 cells with shRNA knockdown of SIKs. The class given is cell-based. The conditions noted are these: for IC50: Mus musculus, RAW264.7, 1 h. The method, then:
. (FIG. 16A) mRNA abundance of SIK1, SIK2 and SIK3 in RAW264.7 macrophages. Gene expression was measured by qPCR. The number of copies of each SIK mRNA was normalized to GAPDH. (mean±SD, n=3). (FIG. 16B) The efficiency of SIK knock-down. RAW264.7 cells were transduced with lentiviral vectors encoding a control shRNA or shRNAs targetting SIK1, SIK2 and SIK3. The expression of SIK1, SIK2 and SIK3 was measured by qPCR and normalized to that of control cells using GAPDH (mean±SD, n=3). […]. The levels of IL-10 mRNA were measured by qPCR and normalized using GAPDH. Data are presented with the highest level of expression set to 1 (mean±SD, n=3). […] (FIG. 16D) Increased IL-10 expression in cells with decreased SIK expression. […].
RNAi in Macrophages RAW264.7 cells or BMDMs were transfected with 100 pmol of SMARTpool siRNA oligos against CREB, CRTC1, CRTC2, CRTC3 or a non-targetting control (Dharmacon) using AMAXA nucleofection. Cells were cultured for 24 h prior to incubation with inhibitors for 1 h followed by stimulation for 1 h with 100 ng/ml LPS. Gene expression was measured by real-time quantitative PCR. For shRNA knockdown of SIKs, lentivirus was generated according to the manufacturer's instructions (Sigma) and RAW264.7 cells were infected using virus harvested 48 and 72 h post-transfection. Infected cells were selected using 3 μg/ml puromycin. QPCR

The subject of a further experiment is CRTC3. Kind of experiment: CRTC3 nuclear translocation (immunofluorescence, live imaging). The class given is cell-based. The conditions noted are these: WT CRTC3. From the text:
FIGS. 15A to 15C. SIK inhibitors induce the dephosphorylation of CRTC3 at Ser62, Ser162, Ser329 and Ser370 and its translocation to the nucleus. (FIG. 15A) HEK293 cells were transfected with FLAG-CRTC2, FLAG-CRTC3 or FLG-CRTC3[S162A]. Aliquots of the cell extracts were subjected to SDS-PAGE and immunoblotting using an antibody that recognizes CRTC2 phosphorylated at Ser171. […] (FIG. 15B) HEK293 cells were transfected with FLAG-CRTC3, FLAG-CRTC3[S62A/S162A/S329A/S370A] (termed CRTC3-4A) or with empty vector (FLAG-ev). […]. (FIG. 15C) Inhibition of SIKs promotes the translocation of endogenous CRTC3 to the nucleus. […].
RAW264.7 cells were grown on glass coverslips and treated with inhibitors for 1 h. Cells were then fixed for 10 min in 3.7% paraformaldehyde, permeabilized for 5 min using 0.1% Triton X-100 in PBS and blocked for 45 min using 3% BSA in PBS. Cells were stained with anti-CRTC3 (Abcam 1:200) and anti-α-tubulin (Santa Cruz 1:500) followed by anti-rabbit-alexa488 and anti-mouse-alexa594 (Invitrogen 1:500), respectively. Antibodies were diluted in blocking buffer and incubated with the cells for 45 min. […] Images were recorded every 30 s for 1.5 min prior to the addition of drug after which cells were imaged for a further 60 min.

The next experiment deals with CREB. Kind of experiment: Immunoblotting of CREB phosphorylation in LPS-stimulated macrophages. The class given is cell-based, mouse. The method, then:
Bone-marrow derived macrophages were differentiated for 7 days in DMEM supplemented with 5 ng/ml recombinant M-CSF (R&D systems), 2 mM glutamine, 10% foetal calf serum, penicillin and streptomycin. […]
Cells were rinsed in ice-cold PBS and extracted in lysis buffer (50 mM Tris/HCl pH 7.4, 1 mM EDTA, 1 mM EGTA, 50 mM NaF, 5 mM sodium pyrophosphate, 10 mM sodium α-glycerol 1-phosphate, 1 mM dithiothreitol, 1 mM sodium orthovanadate, 0.27 M sucrose, 1% (v/v) Triton X-100, 1 μg/ml aprotinin, 1 μg/ml leupeptin and 1 mM phenylmethylsulphonyl fluoride). Cell extracts were clarified by centrifugation at 14000×g for 10 min at 4° C. and protein concentrations determined using the Bradford assay. To detect proteins in cell lysates, 20 μg of protein extract was separated by SDS-PAGE. After transfer to PVDF membranes, proteins were detected by immunoblotting and visualized by treating the blots with ECL (Amersham) followed by autoradiography. The antibody recognizing CREB phosphorylated at Ser133 was from Cell Signalling Technology and the one detecting α-tubulin was obtained from Sigma.
(In general: A western blot detects proteins with antibodies after separation by electrophoresis.)

Another experiment concerns CREB luciferase reporter. Nature of the experiment: CREB luciferase reporter assay in HEK293 cells. The class given is cell-based. The conditions noted are these: HEK293, 2 μM MRT67307, 10 μM forskolin 2 h. The method, then: FIG. 5. […] HEK293 cells were co-transfected with DNA encoding a CREB luciferase reporter construct and pTK-RL. […] Luciferase activity was measured with a dual luciferase assay system (Promega) and was normalized to Renilla luciferase activity (n=3, mean±SEM).
HEK293 cells were co-transfected with DNA encoding FLAG-CRTC3 or phosphomutants along with a CREB firefly luciferase reporter construct (pCRE-luc from Stratagene) and pTK-RL which encodes renilla luciferase under the control of a constitutive promoter. At 24 h post-transfection, cells were treated with or without 10 μM KIN112 for a further 24 h. Firefly luciferase activity was measured with a dual luciferase assay system (Promega) and was normalized to Renilla luciferase activity.
(In general: Reporter assays use an easily measured gene product as a stand-in for the process of interest.)

The test system of a further experiment is LKB1−/− cells. Kind of experiment: CREB-dependent gene transcription in IL-1 stimulated LKB1+/+ and LKB1−/− MEFs. The class given is cell-based, mouse.

With `COc1ccc(N(C(=O)Nc2c(C)cccc2C)c2cc(Nc3ccc(N4CCN(C)CC4)cc3)ncn2)c(OC)c1` [HG-9-91-01, 1-(2,4-dimethoxyphenyl)-3-(2,6-dimethylphenyl)-1-(6-((4-(4-methylpiperazin-1-yl)phenyl)amino)pyrimidin-4-yl)urea], the IC50 is 150 ± 20 nM in the experiment on RAW264.7 macrophages (read-out: IC50 for stimulation of IL-10 mRNA, SIK1/2/3 shRNA cells, 1 μg/ml Pam3CSK4 1 h) and 260 ± 10 nM in the experiment with RAW264.7 macrophages (read-out: IC50 for stimulation of IL-10 mRNA, control shRNA cells, 1 μg/ml Pam3CSK4 1 h). In the experiment with RAW264.7 macrophages (suboptimal concentration (100 nM)), the “IL-10 mRNA expression in SIK-depleted versus wild-type macrophages” value is 4 fold. The CRTC3 nuclear translocation entry in the experiment with CRTC3 is recorded as “translocates to the nucleus”.
For the compound `O=C(NCCCNc1nc(Nc2cccc(CN3CCOCC3)c2)ncc1C1CC1)C1CCC1` [MRT67307], the “phosphorylation of CREB at Ser133 induced by LPS” value with CREB was “little effect”. The CREB-dependent luciferase transcription entry with CREB luciferase reporter is “increases”. The CREB-dependent gene transcription entry with LKB1−/− cells (LKB1+/+ cells) is listed as “enhanced”. Further, in the experiment with LKB1−/− cells (LKB1−/− cells), the “transcription of Nurr1 and Nurr77” value was “only be increased to a small extent”.
